Assay results as given in ChEMBL document CHEMBL3817835, “Progress in the development of small molecules as new human A3adenosine receptor ligands based on the 3-thiophenylcoumarin core” (Medchemcomm, 2016).

Columns and labels:
Adenosine receptor A3 = Adenosine receptor A3 (Homo sapiens, UniProt P0DMS8); assay: Displacement of [3H]HEMADO from human A3 adenosine receptor expressed in CHO cells; type: cell-based
Adenosine receptor A2b = target: T1, Adenosine receptor A2b (Homo sapiens, UniProt P29275); assay: Antagonist activity at human A2B adenosine receptor assessed as inhibition of NECA-stimulated adenylyl cyclase activity; type: functional
T1 sequence (P29275 whole entry): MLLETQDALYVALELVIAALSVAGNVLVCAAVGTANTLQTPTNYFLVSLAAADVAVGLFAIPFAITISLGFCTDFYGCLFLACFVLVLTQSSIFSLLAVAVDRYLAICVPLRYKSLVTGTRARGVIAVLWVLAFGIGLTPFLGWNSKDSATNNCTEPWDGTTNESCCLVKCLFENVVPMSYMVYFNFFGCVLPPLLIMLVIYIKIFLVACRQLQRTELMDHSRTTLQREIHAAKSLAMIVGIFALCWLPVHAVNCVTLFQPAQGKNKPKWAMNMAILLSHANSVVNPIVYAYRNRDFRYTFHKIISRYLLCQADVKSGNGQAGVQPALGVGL

Adenosine receptor A2a = Adenosine receptor A2a (Homo sapiens, UniProt P29274); assay: Displacement of [3H]NECA from human A2A adenosine receptor expressed in CHO cells; type: cell-based
Adenosine receptor A1 = target: T2, Adenosine receptor A1 (Homo sapiens, UniProt P30542); assay: Displacement of [3H]CCPA from human A1 adenosine receptor expressed in CHO cells; type: cell-based
T2 sequence (P30542 whole entry): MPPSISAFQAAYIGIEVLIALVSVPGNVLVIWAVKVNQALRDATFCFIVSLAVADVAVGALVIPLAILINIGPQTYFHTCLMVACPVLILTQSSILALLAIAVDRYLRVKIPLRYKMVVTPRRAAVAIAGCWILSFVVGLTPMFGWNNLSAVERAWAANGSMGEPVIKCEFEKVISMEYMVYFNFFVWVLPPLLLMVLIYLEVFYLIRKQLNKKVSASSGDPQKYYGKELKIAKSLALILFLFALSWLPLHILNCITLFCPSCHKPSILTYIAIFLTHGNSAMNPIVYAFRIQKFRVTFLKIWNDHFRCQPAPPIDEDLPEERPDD

Homo sapiens = species: Homo sapiens; assay: Selectivity index, ratio of Ki for human A2 adenosine receptor to Ki for human A3 adenosine receptor
[1] = target: Adenosine receptors; A1 & A3 (Homo sapiens) (UniProt P30542+P0DMS8); assay: Selectivity index, ratio of Ki for human A1 adenosine receptor to Ki for human A3 adenosine receptor

Adenosine receptor A2a, sequence (P29274 whole entry): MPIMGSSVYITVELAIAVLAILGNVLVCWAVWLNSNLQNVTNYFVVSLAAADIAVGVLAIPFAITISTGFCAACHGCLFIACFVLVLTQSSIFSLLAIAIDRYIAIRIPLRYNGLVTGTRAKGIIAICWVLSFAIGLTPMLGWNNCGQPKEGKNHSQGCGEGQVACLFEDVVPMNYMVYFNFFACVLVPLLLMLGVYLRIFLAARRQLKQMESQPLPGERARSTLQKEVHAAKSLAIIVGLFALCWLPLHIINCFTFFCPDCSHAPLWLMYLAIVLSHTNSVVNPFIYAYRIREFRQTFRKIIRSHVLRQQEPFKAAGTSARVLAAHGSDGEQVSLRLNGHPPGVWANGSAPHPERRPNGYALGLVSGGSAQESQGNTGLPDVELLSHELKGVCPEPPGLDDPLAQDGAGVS
Adenosine receptor A3, sequence (P0DMS8 whole entry, looked up): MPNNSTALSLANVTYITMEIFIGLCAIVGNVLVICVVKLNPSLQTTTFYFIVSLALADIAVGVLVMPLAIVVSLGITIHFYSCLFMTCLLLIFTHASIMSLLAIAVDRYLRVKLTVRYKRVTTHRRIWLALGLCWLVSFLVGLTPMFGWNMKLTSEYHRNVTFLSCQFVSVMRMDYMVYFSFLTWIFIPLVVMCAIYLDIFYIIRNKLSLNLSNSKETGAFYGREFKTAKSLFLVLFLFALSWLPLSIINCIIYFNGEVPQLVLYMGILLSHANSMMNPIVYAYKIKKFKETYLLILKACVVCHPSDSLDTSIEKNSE

SMILES	Ki (Adenosine receptor A3) [µM]	Ki (Adenosine receptor A2b) [µM]	Ki (Adenosine receptor A2a) [µM]	Ki (Adenosine receptor A1) [µM]	Ratio Ki (Homo sapiens)	Ratio Ki [1]
O=c1oc2c(O)cccc2cc1-c1ccsc1	2.87	> 30	9.87	5.92		
O=c1oc2c(O)c(O)ccc2cc1-c1cccs1	4.83	> 30	9.98	3.23		
O=c1oc2c(O)cccc2cc1-c1cc(Br)cs1	0.746	> 30	> 100	> 100	130	130
O=c1oc2c(O)cccc2cc1-c1cccs1	1.43	> 30	7.48	3.36		
CC(=O)Oc1cccc2cc(-c3cc(Br)cs3)c(=O)oc12	4.08	> 30	> 100	> 100		
CC(=O)Oc1ccc2cc(-c3cccs3)c(=O)oc2c1OC(C)=O	22.5	> 30	> 100	> 100		
O=c1oc2c(O)c(O)ccc2cc1-c1ccsc1	5.31	> 30	14.7	3.36		
CC(=O)Oc1ccc2cc(-c3cc(Br)cs3)c(=O)oc2c1OC(C)=O	> 100	> 30	> 100	> 100		
O=c1oc2c(O)c(O)ccc2cc1-c1cc(Br)cs1	3.4	> 30	12.2	16.3		
CC(=O)Oc1ccc2cc(-c3ccsc3)c(=O)oc2c1OC(C)=O	3.6	> 30	20.6	> 100		
CC(=O)Oc1cccc2cc(-c3cccs3)c(=O)oc12	2.58	> 30	18.8	> 100		
CC(=O)Oc1cccc2cc(-c3ccsc3)c(=O)oc12	1.82	> 30	14.7	> 100		
